The values below come from patent US10532984B2, “Pyridonecarboxylic acid derivative or salt thereof” (priority 2016, dated 2020).

The test system of one experiment is P. aeruginosa 08-05. Kind of experiment: Combined antibacterial effect with drug efflux pump inhibitor PAβN, broth microdilution MIC. As to conditions: for P. aeruginosa 08-05 MIC ratio: P. aeruginosa 08-05, PAβN(−) MIC/PAβN(+) MIC; for MIC value P. aeruginosa 08-05 PAβN +: P. aeruginosa 08-05, with PAβN 50 μg/mL; for MIC value P. aeruginosa 08-05 PAβN −: P. aeruginosa 08-05, without PAβN. It counts as cell-based. How it is done:
(§1) The method used was a broth microdilution method according to the standard method of the Japanese Society of Chemotherapy (Chemotherapy, 38 (1), 102, 1990). In the condition which added H-Phe-Arg-βNA, 2HCl (PAβN) (50 μg/mL) as drug efflux pump inhibitor, the minimum inhibitory concentrations (MIC: μg/mL) was measured. The minimum inhibitory concentrations (MIC: μg/mL) of the conventional antimicrobial agents levofloxacin and cefepime as a positive control compound and a negative control compound for the evaluation were also measured similarly. P. aeruginosa is a clinical isolate given by […] Medical Center.
(Broth dilution looks for growth in wells or tubes with falling amounts of substance.)

For another experiment, the system named is P. aeruginosa PA01. The description is as above. As to conditions: for MIC value P. aeruginosa PA01 PAβN +: P. aeruginosa PA01, with PAβN 50 μg/mL; for MIC value P. aeruginosa PA01 PAβN −: P. aeruginosa PA01, without PAβN. It counts as cell-based. How it is done: as §1
The test system of another experiment is P. aeruginosa 2014-17. The description is as above. It counts as cell-based. Particulars: for MIC value P. aeruginosa 2014-17 PAβN +: P. aeruginosa 2014-17, with PAβN 50 μg/mL; for MIC value P. aeruginosa 2014-17 PAβN −: P. aeruginosa 2014-17, without PAβN. The method, then:
as §1

A further experiment deals with MRSA9522. Kind of experiment: Antibacterial effect, MIC by standard method of Japanese Society of Chemotherapy. Particulars: Staphylococcus aureus. It counts as cell-based, methicillin-resistant Staphylococcus aureus. The method, then:
(§2) The minimum inhibitory concentrations (MIC: μg/mL) of the compounds set forth in Table 1 were measured according to the standard method of Japanese Society of Chemotherapy (Japanese Journal of Chemotherapy, 56 (1), 49, 2008). […] P. aeruginosa is a clinical isolate given by Kameda Medical Center. C. difficile is a clinical isolate purchased from International Health Management Associates, Inc. (IHMA).

In another experiment the test system is MRSA9532. Described as above. The format is cell-based, methicillin-resistant Staphylococcus aureus. As to conditions: Staphylococcus aureus. The method, then: as §2
The subject of a further experiment is C. difficile 2015-13. The description is as above. The format is cell-based. Particulars: Clostridioides difficile, 201513; C. difficile 2015-13, clinical isolate. The method, then:
as §2

The test system of a further experiment is P. aeruginosa 2014-16. The experiment is described as above. It counts as cell-based. As to conditions: Pseudomonas aeruginosa, 201416; P. aeruginosa 2014-16, clinical isolate. How it is done:
as §2

Another experiment has as its system C. difficile 2015-12. The experiment is described as above. It counts as cell-based. Particulars: Clostridioides difficile, 201512; C. difficile 2015-12, clinical isolate. The method, then: as §2

Structures are written as SMILES. Values after ≈ are worked out from the molar mass of the structure shown.

Turning to `CO/N=C(\C(=O)N[C@@H]1C(=O)N2C(C(=O)[O-])=C(C[N+]3(C)CCCC3)CS[C@H]12)c1csc(N)n1` [Cefepime, cefepime, reference compound], in the experiment on P. aeruginosa 08-05, the “P. aeruginosa 08-05 MIC ratio” value is 4, the “MIC value P. aeruginosa 08-05 PAβN +” value stood at 2 µg/mL and the “MIC value P. aeruginosa 08-05 PAβN −” value amounted to 8 µg/mL. In addition, in the experiment with P. aeruginosa PA01, the “MIC value P. aeruginosa PA01 PAβN +” value was 0.5 µg/mL and the “MIC value P. aeruginosa PA01 PAβN −” value amounted to 1 µg/mL. In addition, in the experiment with P. aeruginosa 2014-17, the “MIC value P. aeruginosa 2014-17 PAβN +” value is 16 µg/mL and the “MIC value P. aeruginosa 2014-17 PAβN −” value turned out to be 64 µg/mL.
In the case of `O=C(O)c1cn(C2CC2)c2cc(N3CCNCC3)c(F)cc2c1=O` [Ciprofloxacin, ciprofloxacin], the figures for the minimal inhibitory concentration (MIC) against MRSA9522 and in the experiment on MRSA9532 were 128 µg/mL (≈ 386 µM) and greater than 128 µg/mL, respectively.
With `Nc1cc(-n2cc(C(=O)O)c(=O)c3cc(F)c(N4CC(N)C4)c(Cl)c32)c(F)cc1F` [Comparative Compound 1, 7-(3-Aminoazetidin-1-yl)-1-(5-amino-2,4-difluorophenyl)-8-chloro-6-fluoro-4-oxo-1,4-dihydroquinoline-3-carboxylic acid], the MIC in the experiment on C. difficile 2015-13 stood at 8 µg/mL (≈ 18.2 µM); in the experiment on P. aeruginosa 2014-16 it was 8 µg/mL (≈ 18.2 µM); against C. difficile 2015-12, 16 µg/mL (≈ 36.5 µM); against MRSA9522 it was 4 µg/mL (≈ 9.12 µM); against MRSA9532, 4 µg/mL (≈ 9.12 µM).
With `CNC1CN(c2c(F)cc3c(=O)c(C(=O)O)cn(-c4cc(N)c(F)cc4F)c3c2Cl)C1` [Comparative Compound 2, 1-(5-amino-2,4-difluorophenyl)-8-chloro-6-fluoro-7-(3-methylaminoazetidin-1-yl)-4-oxo-1,4-dihydroquinoline-3-carboxylic acid], the MIC against C. difficile 2015-13 was determined as 4 µg/mL (≈ 8.83 µM); against P. aeruginosa 2014-16, 16 µg/mL (≈ 35.3 µM); with C. difficile 2015-12, 8 µg/mL (≈ 17.7 µM); in the experiment with MRSA9522, 1 µg/mL (≈ 2.21 µM); in the experiment with MRSA9532, 2 µg/mL (≈ 4.42 µM).
For the molecule `CNC1CN(c2c(F)cc3c(=O)c(C(=O)O)cn(-c4cc(N)c(F)cc4CO)c3c2C)C1` [Example 70], in the experiment with P. aeruginosa 08-05, the “P. aeruginosa 08-05 MIC ratio” value turned out to be 4, the “MIC value P. aeruginosa 08-05 PAβN +” value worked out at 0.25 µg/mL and the “MIC value P. aeruginosa 08-05 PAβN −” value was found to be 1 µg/mL. In the experiment with P. aeruginosa PA01, the “MIC value P. aeruginosa PA01 PAβN +” value is 0.25 µg/mL and the “MIC value P. aeruginosa PA01 PAβN −” value stood at 0.25 µg/mL. Besides, in the experiment with P. aeruginosa 2014-17, the “MIC value P. aeruginosa 2014-17 PAβN +” value came out at 4 µg/mL and the “MIC value P. aeruginosa 2014-17 PAβN −” value worked out at 16 µg/mL.
Take `Cc1c(F)c(N2CC(N)C2)c(C)c2c1c(=O)c(C(=O)O)cn2-c1cc(N)c(F)cc1CO` [Example 100, 7-(3-Aminoazetidin-1-yl)-1-[5-amino-4-fluoro-2-(hydroxymethyl)phenyl]-5,8-dimethyl-6-fluoro-4-oxo-1,4-dihydroquinoline-3-carboxylic acid]: in the experiment on P. aeruginosa 08-05, the “P. aeruginosa 08-05 MIC ratio” value came out at 8, the “MIC value P. aeruginosa 08-05 PAβN +” value amounted to 0.06 µg/mL and the “MIC value P. aeruginosa 08-05 PAβN −” value was found to be 0.5 µg/mL. Further, in the experiment on P. aeruginosa PA01, the “MIC value P. aeruginosa PA01 PAβN +” value came out at 0.016 µg/mL and the “MIC value P. aeruginosa PA01 PAβN −” value amounted to 0.12 µg/mL. Besides, in the experiment on P. aeruginosa 2014-17, the “MIC value P. aeruginosa 2014-17 PAβN +” value worked out at 0.25 µg/mL and the “MIC value P. aeruginosa 2014-17 PAβN −” value came out at 2 µg/mL.
In the case of `CNC1CN(c2c(F)c(C)c3c(=O)c(C(=O)O)cn(-c4cc(N)c(F)cc4CO)c3c2Cl)C1` [Example 104, 1-[5-Amino-4-fluoro-2-(hydroxymethyl)phenyl]-8-chloro-6-fluoro-5-methyl-7-(3-methylaminoazetidin-1-yl)-4-oxo-1,4-dihydroquinoline-3-carboxylic acid], in the experiment with P. aeruginosa 08-05, the “P. aeruginosa 08-05 MIC ratio” value amounted to 8, the “MIC value P. aeruginosa 08-05 PAβN +” value was 0.06 µg/mL and the “MIC value P. aeruginosa 08-05 PAβN −” value worked out at 0.5 µg/mL. Moreover, in the experiment with P. aeruginosa PA01, the “MIC value P. aeruginosa PA01 PAβN +” value was 0.016 µg/mL and the “MIC value P. aeruginosa PA01 PAβN −” value came to 0.12 µg/mL. For the same molecule, in the experiment on P. aeruginosa 2014-17, the “MIC value P. aeruginosa 2014-17 PAβN +” value stood at 0.25 µg/mL and the “MIC value P. aeruginosa 2014-17 PAβN −” value was determined as 4 µg/mL. The molecule further showed an MIC in the experiment on C. difficile 2015-13 of 0.5 µg/mL (≈ 1.04 µM). Moreover, it took 2 µg/mL (≈ 4.18 µM) to inhibit growth in the experiment with P. aeruginosa 2014-16 (MIC). The same molecule displayed an MIC with C. difficile 2015-12 of 1 µg/mL (≈ 2.09 µM). In addition, in the experiment with MRSA9522, it took 1 µg/mL (≈ 2.09 µM) to inhibit growth (MIC). In addition, the lowest concentration to inhibit growth with MRSA9532 (MIC) was 1 µg/mL (≈ 2.09 µM).
For `Cc1c(F)c(N2CC(O)C2)c(Cl)c2c1c(=O)c(C(=O)O)cn2-c1cc(N)c(F)cc1CO` [Example 113, 1-[5-Amino-4-fluoro-2-(hydroxymethyl)phenyl]-8-chloro-6-fluoro-7-(3-hydroxyazetidin-1-yl)-5-methyl-4-oxo-1,4-dihydroquinoline-3-carboxylic acid], the minimum inhibitory concentration (MIC) came to 0.06 µg/mL (≈ 0.129 µM) in the experiment on C. difficile 2015-13; 4 µg/mL (≈ 8.59 µM) against P. aeruginosa 2014-16; 0.12 µg/mL (≈ 0.258 µM) with C. difficile 2015-12; 1 µg/mL (≈ 2.15 µM) with MRSA9522; 1 µg/mL (≈ 2.15 µM) in the experiment with MRSA9532.
As for `C[C@H]1COc2c(N3CCN(C)CC3)c(F)cc3c(=O)c(C(=O)O)cn1c23` [Levofloxacin, levofloxacin, reference compound], in the experiment with P. aeruginosa 08-05, the “P. aeruginosa 08-05 MIC ratio” value amounted to 32, the “MIC value P. aeruginosa 08-05 PAβN +” value came to 0.12 µg/mL and the “MIC value P. aeruginosa 08-05 PAβN −” value stood at 4 µg/mL. Moreover, in the experiment with P. aeruginosa PA01, the “MIC value P. aeruginosa PA01 PAβN +” value amounted to 0.06 µg/mL and the “MIC value P. aeruginosa PA01 PAβN −” value was 0.5 µg/mL. In the experiment with P. aeruginosa 2014-17, the “MIC value P. aeruginosa 2014-17 PAβN +” value was 1 µg/mL and the “MIC value P. aeruginosa 2014-17 PAβN −” value was 32 µg/mL. Besides, the minimum inhibitory concentration (MIC) against C. difficile 2015-13 is greater than 128 µg/mL. This molecule also registered an MIC in the experiment on P. aeruginosa 2014-16 greater than 128 µg/mL. In the experiment on C. difficile 2015-12, the MIC was greater than 128 µg/mL. This molecule also showed an MIC in the experiment on MRSA9522 greater than 128 µg/mL. Further, the minimal inhibitory concentration (MIC) in the experiment on MRSA9532 was greater than 128 µg/mL.

The MIC is the least concentration at which growth counts as inhibited.
